SMILES strings stand for the structures. Structures can show the parent of a compound that is named as a salt.

Series [1] has as its system human blood plasma. As to the kind of experiment: Activated partial thromboplastin time (aPTT) clotting assay. Type of series: biochemical. The protocol:
(§1) Human blood plasma was isolated from fresh buffy coats (collected onto the citrate-dextrose solution—ACD) purchased from the Regional Centre of Blood Donation and Blood Treatment in Lodz, Poland. In the isolation procedure, the buffy coats (60 mL units) were divided into volumes of 10 mL and centrifuged (4000 rpm/15 min) in 15 mL tubes. Next, 1 mL solutions of each amide 1–8 were prepared in distilled water at concentrations of 10, 25, and 50 mg/L. Then, 450 μL of plasma and 50 μL of each amide at the tested concentrations were placed into 1.5 mL vials. The vials were vortexed (Vortex Biosan V-1 plus), incubated at 37 °C on a thermoblock (Dry Block Thermostat Biosan TDB-120), and analyzed using a Kselmed K-3002 OPTIC coagulometer (Grudziądz, Poland), based on the manufacturer’s protocols (described below). The control sample was native blood plasma, untreated with any of the examined substances.
Fifty microliters of control plasma and plasma samples treated with the amides were transferred to measuring cuvettes and placed in the thermoblock module (37 °C) of the coagulometer (KSELMED, K-3002 Optic). Then, 50 μL of Dia-APTT reagent (DIAGON Kft. Hungary; cat. no. 72048) was added. The mixture was incubated for 180 s at 37 °C. Finally, 50 μL of reagent Dia-CaCl2 (DIAGON Kft. Hungary; cat. no. 41192) was added. Measurements were started immediately.

In series [2] the test system is human blood plasma. As to the kind of experiment: Prothrombin time (PT) clotting assay. Type of series: biochemical. The procedure:
as §1
Fifty microliters of control plasma and plasma samples treated with the amides were transferred to measuring cuvettes and placed in the thermoblock module (37 °C) of a coagulometer (KSELMED, K-3002 Optic). Then, 100 μL of Dia-PT reagent (DIAGON Kft. Hungary; cat. no. 81100) was added. Measurements were started immediately.

Series [3] can be described thus: Hemolysis assay (stability of erythrocytes). Conditions: male, human, heparinized whole blood diluted with saline (erythrocytes); for hemolysis at 45 min, 5 mg/L / hemolysis at 120 min, 5 mg/L / hemolysis at 240 min, 5 mg/L: c 5 mg/L. Type of series: cell-based, human. The protocol:
Heparinized whole blood was used from a healthy volunteer. The whole blood (10 mL) was diluted with saline solution (90 mL). For each UV-Vis measurement, 2.5 mL of diluted blood was used. For each blood sample, 1 mL of a saline solution containing hydrochlorides 1–8 at concentrations of 5, 50, and 500 mg/L was added. As a control were used blood samples with the addition of 1% solution of DMSO in saline and 1% solution of SDS in saline. In all cases, the measurements were repeated twice for each concentration. […] The cells were centrifuged, and the absorbance of the supernatant, which contained plasma and lysed erythrocytes, was measured at 540 nm. The percentage of lysis was calculated from a standard curve of lysed erythrocytes treated with SDS [52].

Series [4] has as its system human blood plasma. As to the kind of experiment: Thrombin time (TT) clotting assay. Format: biochemical. The procedure:
as §1
Both 100 μL of control plasma and plasma samples treated with the amides were transferred to measuring cuvettes, which were placed in the thermoblock module (37 °C) of the coagulometer (KSELMED K-3002 Optic). Then, 100 μL of thrombin solution (4.5 U/mL, in 0.9% NaCl; Biomed, Lublin, Poland) was added to the cuvette. Measurements were started immediately.

The subject of series [5] is human blood plasma. As to the kind of experiment: Clot formation and fibrinolysis (CFF) assay. Format: biochemical. Conditions: for Amax (maximum of fibrin clot absorbance at 360 nm) / VmaxC (of Fibrin Polymerization) / VmaxF (of Fibrin Clot Lysis): control plasma assumed as 100%, mean ± SD, n = 5–7; for decrease of VmaxF: concentration not given. The source says:
The CFF assay enables analysis of both the blood plasma coagulation process and fibrinolysis efficiency. The thrombin enzyme in the reagent mixture initiates blood plasma fibrinogen polymerization, leading to an increase in absorbance in the sample until the maximal absorbance (Amax) is attained. The fibrinolytic activity of blood plasma is induced by the tissue-type plasminogen activator (t-PA). The activation of fibrinolysis in the tested samples leads to fibrin clot degradation and decreases the absorbance to the baseline.
Figure 11 An exemplary curve of blood plasma coagulation and clot lysis recorded during the clot formation and fibrinolysis (CFF) assay. The first step in the CFF test involves activation of the blood plasma coagulation cascade and fibrin clot formation (1). It is characterized by the maximal velocity of the fibrin polymerization parameter (VmaxC). The maximal absorbance (Amax) peak corresponds to the fibrin stabilization phase and is an indicator of fibrin clot thickness (2). The third step of the CFF assay covers the activation of fibrinolytic mechanisms and fibrin clot degradation (3) and is described by the maximal velocity of clot lysis (VmaxF).
Thrombin was purchased from BioMed (Lublin, Poland). A tissue-type plasminogen activator (Actilyse®) was purchased from Boehringer Ingelheim, Ingelheim am Rhein, Germany. Kinetic measurements were executed using a SpectrostarNano microplate spectrophotometer (BMG LabTech, Ortenberg, Germany).
Measurements were performed using a kinetic model, as described in our previous work. Briefly, blood plasma was preincubated with the examined substances (at final concentrations of 10, 25, and 50 mg/L) for 15 min at 37 °C. Then, 100 μL of blood plasma was added to microtiter plate wells, which was followed by 200 μL of the reagent mixture (0.75 U/mL thrombin, 225 ng/mL t-PA and 7.5 mM CaCl2) suspended in tris-buffered saline (0.05 M TBS, 0.9% NaCl; pH 7.4). Measurements of absorbance changes were started immediately and continued for 60 min at 37 °C, λ = 360 nm. The following parameters were used to determine the effects of the examined substances on the coagulation and fibrinolytic properties of the blood plasma: the maximal velocity of fibrinogen polymerization (VmaxC), which is an indicator of the plasma coagulation efficiency; the maximal absorbance (Amax), which is an indicator of the fibrin clot stabilization and its thickness; the maximal velocity of clot lysis (VmaxF), which is an indicator of blood plasma fibrinolytic activity.

For orientation: melting point means the temperature, or range, at which the solid turns liquid. In turn, `NCCCCCC(=O)NCC1CCC(C(=O)O)CC1` (stereo not shown) (as salt: hydrochloride) [Amide 3, 6-((((1s,4s)-4-Carboxycyclohexyl)methyl)amino)-6-oxohexan-1-aminium chloride] had a melting point of 195 to 197 °C.

Turning to `NCC(=O)NCC1CCC(C(=O)O)CC1` (stereo not shown) (as salt: hydrochloride) [Amide 7, 2-((((1s,4s)-4-Carboxycyclohexyl)methyl)amino)-2-oxoethanaminium chloride], the melting point is 221 to 224 °C.

As to `Cl.NCCCCCC(=O)NCCCCCC(=O)O` [Amide 4, 6-(6-Aminohexanamido)hexanoic acid hydrochloride], the “aPTT Time [% of Control]” value is on record as 98.1 ± 5.2 % of Control in the series with human blood plasma [1] (c 10 mg/L), 97.4 ± 5.4 % of Control in the series with human blood plasma [1] (c 25 mg/L) and 99.9 ± 6.0 % of Control with human blood plasma [1] (c 50 mg/L). In addition, the “PT Time [% of Control]” value was 97.3 ± 4.2 % of Control in the series on human blood plasma [2] (c 10 mg/L), 95.4 ± 2.3 % of Control with human blood plasma [2] (c 25 mg/L) and 93.7 ± 3.0 % of Control in the series with human blood plasma [2] (c 50 mg/L). Besides, in the series on human blood plasma [2] (two higher concentrations (25 and 50 mg/L)), the “prothrombin time, effect versus control in words” value is “significantly decreased”. In series [3] (45 min), this molecule yielded a hemolysis at 45 min, 5 mg/L of 1%. The same molecule registered a hemolysis at 120 min, 5 mg/L in series [3] (120 min) of 0.74%. In series [3] (240 min), this molecule returned a hemolysis at 240 min, 5 mg/L of 0.27%. For the same molecule, the hemolysis at 45 min, 50 mg/L in series [3] (c 50 mg/L, 45 min) stood at 0%. For the same molecule, in series [3] (c 50 mg/L, 120 min), the hemolysis at 120 min, 50 mg/L stood at 0.71%. Besides, in series [3] (c 50 mg/L, 240 min), the hemolysis at 240 min, 50 mg/L was 0.32%. Also, in series [3] (c 500 mg/L, 45 min), the hemolysis at 45 min, 500 mg/L was determined as 0.38%. The molecule also showed a hemolysis at 120 min, 500 mg/L in series [3] (c 500 mg/L, 120 min) of 0.21%. In series [3] (c 500 mg/L, 240 min), this molecule had a hemolysis at 240 min, 500 mg/L of 0.22%. For the same molecule, the “TT Time [% of Control]” value with human blood plasma [4] (c 10 mg/L) is 96.3 ± 6.9 % of Control; in the series on human blood plasma [4] (c 25 mg/L), 95.5 ± 8.8 % of Control; in the series with human blood plasma [4] (c 50 mg/L), 97.6 ± 5.0 % of Control. Besides, the “Amax (maximum of fibrin clot absorbance at 360 nm)” value in the series on human blood plasma [5] (10 mg/L) turned out to be 115.37 ± 8.73 %; with human blood plasma [5] (25 mg/L), 114.07 ± 15.71%; in the series with human blood plasma [5] (50 mg/L), 109.29 ± 9.02 %. The “VmaxC (of Fibrin Polymerization)” value in the series with human blood plasma [5] (10 mg/L) is 107.93 ± 7.23 %; in the series on human blood plasma [5] (25 mg/L), 105.85 ± 7.85%; in the series on human blood plasma [5] (50 mg/L), 105.89 ± 5.64%. Moreover, the entries for the “VmaxF (of Fibrin Clot Lysis)” value with human blood plasma [5] (10 mg/L), in the series on human blood plasma [5] (25 mg/L) and in the series on human blood plasma [5] (50 mg/L) were 81.36 ± 21.07 %, 70.35 ± 16.30 % and 55.95 ± 10.51 %, respectively. Besides, the “decrease of VmaxF” value with human blood plasma [5] is reported as 30–40%.

For the molecule `NCC(=O)NCC1CCC(C(=O)O)CC1` (stereo not shown) [Amide 7, 2-((((1s,4s)-4-Carboxycyclohexyl)methyl)amino)-2-oxoethanaminium chloride], the “aPTT Time [% of Control]” value in the series on human blood plasma [1] (c 10 mg/L) was 98.1 ± 4.6 % of Control; in the series with human blood plasma [1] (c 25 mg/L), 99.3 ± 3.3 % of Control; in the series on human blood plasma [1] (c 50 mg/L), 100.6 ± 4.9 % of Control. Also, the “PT Time [% of Control]” value with human blood plasma [2] (c 10 mg/L) is given as 95.4 ± 7.4 % of Control; in the series with human blood plasma [2] (c 25 mg/L), 94.3 ± 9.7 % of Control; with human blood plasma [2] (c 50 mg/L), 95.3 ± 8.3 % of Control. In addition, the hemolysis at 45 min, 5 mg/L in series [3] (45 min) came to 0%. In series [3] (120 min), the hemolysis at 120 min, 5 mg/L came out at 0.21%. In series [3] (240 min), the hemolysis at 240 min, 5 mg/L is 0.21%. Moreover, the hemolysis at 45 min, 50 mg/L was found to be 0% in series [3] (c 50 mg/L as printed in the third concentration block of amides 7 and 8, 45 min); 0.41% in series [3] (c 50 mg/L, 45 min). For the same molecule, the hemolysis at 120 min, 50 mg/L in series [3] (c 50 mg/L as printed in the third concentration block of amides 7 and 8, 120 min) is 0.23%; in series [3] (c 50 mg/L, 120 min), 0.97%. In addition, the hemolysis at 240 min, 50 mg/L came out at 0.38% in series [3] (c 50 mg/L as printed in the third concentration block of amides 7 and 8, 240 min); 0.64% in series [3] (c 50 mg/L, 240 min). In series [3] (c 500 mg/L, 45 min), the hemolysis at 45 min, 500 mg/L stood at 0%. Moreover, the “TT Time [% of Control]” value with human blood plasma [4] (c 10 mg/L) is 97.2 ± 3.3 % of Control; with human blood plasma [4] (c 25 mg/L) it was 97.5 ± 2.5 % of Control; with human blood plasma [4] (c 50 mg/L), 96.9 ± 1.7 % of Control. The entries for the “Amax (maximum of fibrin clot absorbance at 360 nm)” value with human blood plasma [5] (10 mg/L), in the series on human blood plasma [5] (25 mg/L) and in the series on human blood plasma [5] (50 mg/L) were 115.64 ± 11.61 %, 120.06 ± 25.63 % and 113.54 ± 13.76 %, respectively. Besides, the “VmaxC (of Fibrin Polymerization)” value in the series on human blood plasma [5] (10 mg/L) is 106.86 ± 9.49%; with human blood plasma [5] (25 mg/L) it was 104.39 ± 8.60%; in the series on human blood plasma [5] (50 mg/L) it was 111.45 ± 8.07 %. For the same molecule, the “VmaxF (of Fibrin Clot Lysis)” value in the series on human blood plasma [5] (10 mg/L) was 66.18 ± 21.32 %; in the series on human blood plasma [5] (25 mg/L), 62.99 ± 16.99 %; in the series with human blood plasma [5] (50 mg/L) it was 87.27 ± 8.04%. The “decrease of VmaxF” value in the series with human blood plasma [5] was 30–40%. For the same molecule, in the series with human blood plasma [5] (full range of tested concentrations (10–50 µg/mL)), the “Amax parameter, effect in words” value is listed as “significantly higher”.

The values above are taken from PMC9000710, “Synthesis and Hemostatic Activity of New Amide Derivatives” (Molecules, 2022).
